Experimental data reported in patent publication US10729678B2, “Preparation of and formulation comprising a MEK inhibitor” (Array BioPharma Inc., priority 2012, dated 2020).

Columns and labels:
[1] = test system: unresectable, locally advanced or metastatic biliary cancer; settings: 28 patients with ≤1 prior systemic therapy; oral 60 mg twice daily; after at least 6 weeks of treatment; cited from earlier work
[2] = test system: BRAFV600 or NRAS-mutant melanoma; settings: patients with either BRAFV600 or NRAS-mutant melanoma; cited from earlier work
[3] = Solubility of Compound A in solvents and solvent mixtures; format: physicochemical
Procedure: Due to this low solubility, it is difficult to perform crystallization by standard cooling methods and to control crystal growth. […] This improvement in solubility contributes to an improvement in the purity profile of the final drug substance.
As discussed above, the crystallization process makes use of anti-solvent cooling system. In step d), water is added to the suspension or the cooled suspension mixture to provide a treated mixture. Water, which in general acts as an anti-solvent (solubility <0.01% over a wide temperature range), also unexpectedly acts as a solvent for Compound A when part of the water/methanol/tetrahydrofuran solvent system.

solubility in most standard solvents ([3]; room temperature): less than 1%
increase of solubility on addition of water to solvent mixture ([3]; tetrahydrofuran and methanol with water, compared to methanol and tetrahydrofuran without water): approximately 50%
solubility in water (anti-solvent) ([3]; water, broad/wide temperature range): < 0.01%
SMILES: Cn1cnc2c(F)c(Nc3ccc(Br)cc3F)c(C(=O)NOCCO)cc21 [Compound A, 6-(4-Bromo-2-fluorophenylamino)-7-fluoro-3-methyl-3H-benzoimidazole-5-carboxylic acid (2-hydroxyethyoxy)-amide]
complete regression (number of patients) [1]: 1
partial regression (number of patients) [1]: 1
stable disease diagnoses (number of patients) [1]: 11
effectiveness in treatment of patients [2]: effective
solvent mixture at which maximum solubility is reached ([3]; 65° C., solubility decreases with further addition of water): water (24%), methanol (38%), and tetrahydrofuran (38%)
